Tests used:
[1] = molecular target: T1, recombinant human ACC1 (rhACC1) (Homo sapiens, UniProt Q13085, DEL44-44); assay: recombinant hACC1 Transcreener ADP detection FP assay; assay type: biochemical; conditions: 50 μM ATP, 30 μM acetyl-CoA
T1 construct: recombinant baculovirus containing full length human ACC1 cDNA; made in house; host or cells: SF9 insect cells, recombinant baculovirus
Protocol: (§1) For example direct inhibition of ACC activity, for the compound of Formula (I) was determined using preparations of recombinant human ACC1 (rhACC1) and recombinant human ACC2 (rhACC2). Representative sequences of the recombinant human ACC1 and ACC2 that can be used in the assay are provided herein as SEQ ID NO. 1 and SEQ. ID NO. 2, respectively.
[1] Preparation of rhACC1. Two liters of SF9 cells, infected with recombinant baculovirus containing full length human ACC1 cDNA, were suspended in ice-cold lysis buffer (25 mM Tris, pH 7.5; 150 mM NaCl; 10% glycerol; 5 mM imidazole (EMD Bioscience; Gibbstown, N.J.); 2 mM TCEP (BioVectra; Charlottetown, Canada); Benzonase nuclease (10000 U/100 g cell paste; Novagen; Madison, Wis.); EDTA-free protease inhibitor cocktail (1 tab/50 mL; Roche Diagnostics; Mannheim, Germany). Cells were lysed by 3 cycles of freeze-thaw and centrifuged at 40,000×g for 40 minutes (4° C.). Supernatant was directly loaded onto a HisTrap FF crude column (GE Healthcare; Piscataway, N.J.) and eluted with an imidazole gradient up to 0.5 M over 20 column volumes (CV). ACC1-containing fractions were pooled and diluted 1:5 with 25 mM Tris, pH 7.5, 2 mM TCEP, 10% glycerol and direct loaded onto a CaptoQ (GE Healthcare) column and eluted with an NaCl gradient up to 1 M over 20 CV's. Phosphate groups were removed from purified ACC1 by incubation with lambda phosphatase (100 U/10 μM target protein; New England Biolabs; Beverly, Mass.) for 14 hours at 4° C.; okadaic acid was added (1 μM final concentration; Roche Diagnostics) to inhibit the phosphatase. Purified ACC1 was exchanged into 25 mM Tris, pH 7.5, 2 mM TCEP, 10% glycerol, 0.5 M NaCl by 6 hour dialysis at 4° C. Aliquots were prepared and frozen at −80° C.
[2] Measurement of rhACC1 inhibition. hACC1 was assayed in a Costar #3676 (Costar, Cambridge, Mass.) 384-well plate using the Transcreener ADP detection FP assay kit (Bellbrook Labs, Madison, Wis.) using the manufacturer's recommended conditions for a 50 μM ATP reaction. The final conditions for the assay were 50 mM HEPES, pH 7.2, 10 mM MgCl2, 7.5 mM tripotassium citrate, 2 mM DTT, 0.1 mg/mL BSA, 30 μM acetyl-CoA, 50 μM ATP, and 10 mM KHCO3 Typically, a 10 μl reaction was run for 120 min at 25° C., and 10 μl of Transcreener stop and detect buffer was added and the combination incubated at room temp for an additional 1 hour. The data was acquired on a Envision Fluorescence reader (Perkinelmer) using a 620 excitation Cy5 FP general dual mirror, 620 excitation Cy5 FP filter, 688 emission (S) and a 688 (P) emission filter.
(§2) The results using the recombinant hACC1 and recombinant hACC2 Transcreener assays described above are summarized in the table below for the Compounds of Formula (I) exemplified in the Examples above.

[2] = molecular target: T2, recombinant human ACC2 (rhACC2) (Homo sapiens, UniProt O00763, V2141I); assay: recombinant hACC2 Transcreener ADP detection FP assay; assay type: biochemical; conditions: 50 μM ATP, 30 μM acetyl-CoA
T2 construct: a full length Cytomax clone of ACC2 was purchased from Cambridge Bioscience Limited; made in house; host or cells: CHO cells, tetracycline-induced (PcDNA5 FRT TO-TOPO)
T2 sequence (O00763 whole entry V2141I): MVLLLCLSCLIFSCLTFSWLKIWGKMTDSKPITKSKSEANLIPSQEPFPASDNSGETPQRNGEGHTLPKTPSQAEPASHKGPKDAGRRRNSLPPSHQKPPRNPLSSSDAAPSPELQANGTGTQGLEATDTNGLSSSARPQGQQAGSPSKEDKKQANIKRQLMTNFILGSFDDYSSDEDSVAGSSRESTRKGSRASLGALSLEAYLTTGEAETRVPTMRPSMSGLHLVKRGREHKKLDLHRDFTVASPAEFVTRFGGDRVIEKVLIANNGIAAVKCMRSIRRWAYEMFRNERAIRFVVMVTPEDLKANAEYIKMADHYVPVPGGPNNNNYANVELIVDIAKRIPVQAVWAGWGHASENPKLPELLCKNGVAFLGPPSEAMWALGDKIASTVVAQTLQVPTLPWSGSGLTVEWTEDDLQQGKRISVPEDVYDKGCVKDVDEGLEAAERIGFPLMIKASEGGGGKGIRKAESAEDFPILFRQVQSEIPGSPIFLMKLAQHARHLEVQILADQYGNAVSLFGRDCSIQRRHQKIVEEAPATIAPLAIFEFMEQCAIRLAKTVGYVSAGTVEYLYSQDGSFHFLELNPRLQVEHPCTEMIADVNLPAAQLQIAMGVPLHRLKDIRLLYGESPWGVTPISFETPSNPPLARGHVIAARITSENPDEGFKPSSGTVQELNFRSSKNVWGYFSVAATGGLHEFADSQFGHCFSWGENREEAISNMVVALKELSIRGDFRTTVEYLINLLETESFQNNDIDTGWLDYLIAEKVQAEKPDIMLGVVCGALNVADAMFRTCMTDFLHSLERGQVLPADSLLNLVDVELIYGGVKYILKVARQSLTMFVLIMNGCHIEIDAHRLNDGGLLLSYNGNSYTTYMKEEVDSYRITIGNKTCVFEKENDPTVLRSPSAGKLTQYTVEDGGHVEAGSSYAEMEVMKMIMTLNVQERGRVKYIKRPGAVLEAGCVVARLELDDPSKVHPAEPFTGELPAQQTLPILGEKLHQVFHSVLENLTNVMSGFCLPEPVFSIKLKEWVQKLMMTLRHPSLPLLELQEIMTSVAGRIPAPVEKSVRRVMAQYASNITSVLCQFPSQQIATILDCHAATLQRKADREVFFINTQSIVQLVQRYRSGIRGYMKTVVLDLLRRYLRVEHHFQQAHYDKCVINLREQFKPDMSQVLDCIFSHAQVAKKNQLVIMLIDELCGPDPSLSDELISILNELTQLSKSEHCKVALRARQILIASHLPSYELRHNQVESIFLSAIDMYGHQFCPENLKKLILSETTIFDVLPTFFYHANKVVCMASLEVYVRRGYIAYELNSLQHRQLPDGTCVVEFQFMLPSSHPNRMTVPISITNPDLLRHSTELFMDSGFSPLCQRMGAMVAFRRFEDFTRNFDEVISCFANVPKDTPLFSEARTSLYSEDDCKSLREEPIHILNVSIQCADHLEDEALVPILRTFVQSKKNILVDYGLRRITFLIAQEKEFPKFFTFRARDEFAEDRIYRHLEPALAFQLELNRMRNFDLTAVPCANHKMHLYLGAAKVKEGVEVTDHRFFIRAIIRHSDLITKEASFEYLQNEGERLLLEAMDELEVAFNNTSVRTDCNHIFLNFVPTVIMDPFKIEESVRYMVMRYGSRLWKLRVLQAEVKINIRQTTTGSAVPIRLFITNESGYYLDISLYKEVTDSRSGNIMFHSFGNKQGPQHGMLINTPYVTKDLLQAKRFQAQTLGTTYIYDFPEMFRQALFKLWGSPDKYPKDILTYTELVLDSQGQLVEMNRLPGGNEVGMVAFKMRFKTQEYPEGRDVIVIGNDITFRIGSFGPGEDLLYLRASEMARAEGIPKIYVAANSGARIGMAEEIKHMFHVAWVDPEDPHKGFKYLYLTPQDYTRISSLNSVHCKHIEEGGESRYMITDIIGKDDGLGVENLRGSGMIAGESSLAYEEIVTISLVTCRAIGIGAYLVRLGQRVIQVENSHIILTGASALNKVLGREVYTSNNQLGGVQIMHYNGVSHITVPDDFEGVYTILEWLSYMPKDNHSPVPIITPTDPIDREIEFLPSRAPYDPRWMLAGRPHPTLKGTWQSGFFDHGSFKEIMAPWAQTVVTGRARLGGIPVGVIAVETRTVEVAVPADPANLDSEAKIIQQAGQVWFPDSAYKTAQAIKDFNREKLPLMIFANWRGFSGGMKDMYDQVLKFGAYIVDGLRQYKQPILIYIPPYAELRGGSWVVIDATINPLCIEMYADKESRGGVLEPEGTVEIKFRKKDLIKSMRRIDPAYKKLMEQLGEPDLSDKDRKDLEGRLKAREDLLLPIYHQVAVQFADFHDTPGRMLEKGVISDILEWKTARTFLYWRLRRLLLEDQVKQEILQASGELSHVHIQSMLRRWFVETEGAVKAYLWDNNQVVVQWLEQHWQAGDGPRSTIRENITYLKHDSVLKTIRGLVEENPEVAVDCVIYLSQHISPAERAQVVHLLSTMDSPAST
Protocol: as §1
[3] Preparation of rhACC2. Human ACC2 inhibition was measured using purified recombinant human ACC2 (hrACC2). Briefly, a full length Cytomax clone of ACC2 was purchased from Cambridge Bioscience Limited and was sequenced and subcloned into PcDNA5 FRT TO-TOPO (Invitrogen, Carlsbad, Calif.). The ACC2 was expressed in CHO cells by tetracycline induction and harvested in 5 liters of DMEM/F12 with glutamine, biotin, hygromycin and blasticidin with 1 μg/mL tetracycline (Invitrogen, Carlsbad, Calif.). The conditioned medium containing ACC2 was then applied to a Softlink Soft Release Avidin column (Promega, Madison, Wis.) and eluted with 5 mM biotin. 4 mgs of ACC2 were eluted at a concentration of 0.05 mg/mL (determined by A280) with an estimated purity of 95% ([…]). The purified ACC2 was dialyzed in 50 mM Tris, 200 mM NaCl, 4 mM DTT, 2 mM EDTA, and 5% glycerol. The pooled protein was frozen and stored at −80° C., with no loss of activity upon thawing. For measurement of ACC2 activity and assessment of ACC2 inhibition, test compounds were dissolved in DMSO and added to the rhACC2 enzyme as a 5× stock with a final DMSO concentration of 1%.
[4] Measurement of human ACC2 inhibition. hACC2 was assayed in a Costar #3676 (Costar, Cambridge, Mass.) 384-well plate using the Transcreener ADP detection FP assay kit (Bellbrook Labs, Madison, Wis.) using the manufacturer's recommended conditions for a 50 uM ATP reaction. The final conditions for the assay were 50 mM HEPES, pH 7.2, 5 mM MgCl2, 5 mM tripotassium citrate, 2 mM DTT, 0.1 mg/mL BSA, 30 μM acetyl-CoA, 50 μM ATP, and 8 mM KHCO3. Typically, a 10 μl reaction was run for 50 min at 25° C., and 10 μl of Transcreener stop and detect buffer was added and the combination incubated at room temp for an additional 1 hour. The data was acquired on an Envision Fluorescence reader (Perkinelmer) using a 620 excitation Cy5 FP general dual mirror, 620 excitation Cy5 FP filter, 688 emission (S) and a 688 (P) emission filter.
as §2

| SMILES | IC50 [1] | IC50 [2] |
| --- | --- | --- |
| CC(C)(C)n1cc2c(n1)C(=O)CC1(CCN(C(=O)c3ccc4[nH]c(C(N)=O)cc4c3)CC1)C2 [Example 32] | 8.1 nM | 1.5 nM |
| CC(C)(C)n1cc2c(n1)C(=O)CC1(CCN(C(=O)c3ccc4[nH]cc(C(N)=O)c4c3)CC1)C2 [Example 33] | 3.1 nM | 1 nM |
| CC(C)(C)n1cc2c(n1)C(=O)CC1(CCN(C(=O)c3ccc4cc(C(N)=O)[nH]c4c3)CC1)C2 [Example 34] | 8.1 nM | 2.8 nM |
| CC(C)(C)n1cc2c(n1)C(=O)CC1(CCN(C(=O)c3ccc4[nH]c(N)nc4c3)CC1)C2 [Example 35] | 12 nM | 1.4 nM |
| CCNC(=O)c1n[nH]c2ccc(C(=O)N3CCC4(CC3)CC(=O)c3nn(C(C)(C)C)cc3C4)cc12 [Example 36] | 4 nM | 1.7 nM |
| CNC(=O)c1n[nH]c2ccc(C(=O)N3CCC4(CC3)CC(=O)c3nn(C(C)(C)C)cc3C4)cc12 [Example 37] | 2.9 nM | 1.3 nM |
| CC(C)(C)n1cc2c(n1)C(=O)CC1(CCN(C(=O)c3ccc4[nH]nc(C(=O)NCC(F)(F)F)c4c3)CC1)C2 [Example 38] | 4.3 nM | 1.1 nM |
| CNc1nc2cc(C(=O)N3CCC4(CC3)CC(=O)c3nn(C(C)(C)C)cc3C4)ccc2[nH]1 [Example 39] | 9.8 nM | 1.5 nM |
| CNc1ccc2ccc(C(=O)N3CCC4(CC3)CC(=O)c3nn(C(C)(C)C)cc3C4)cc2n1 [Example 40] | 2.2 nM | 1.3 nM |
| CC(C)(C)n1cc2c(n1)C(=O)CC1(CCN(C(=O)c3ccc4c(C#N)n[nH]c4c3)CC1)C2 [Example 41] | 18 nM | 3.7 nM |
| CC(C)(C)n1cc2c(n1)C(=O)CC1(CCN(C(=O)c3cnc4c(Cl)c[nH]c4c3)CC1)C2 [Example 42] | 6.6 nM | 1.8 nM |
| CC(C)(C)n1cc2c(n1)C(=O)CC1(CCN(C(=O)c3ccc4[nH]nc(C#N)c4c3)CC1)C2 [Example 43] | 6.4 nM | 2.8 nM |
| CC(C)(C)n1cc2c(n1)C(=O)CC1(CCN(C(=O)c3cnc4ccc(C(N)=O)cc4c3)CC1)C2 [Example 44] | 31 nM | 5.4 nM |
| CC(C)(C)n1cc2c(n1)C(=O)CC1(CCN(C(=O)c3cnc4c(C(N)=O)c[nH]c4c3)CC1)C2 [Example 45, 6-[(2-tert-butyl-7-oxo-2,4,6,7-tetrahydro-1′H-spiro[indazole-5,4′-piperidin]-1′-yl)carbonyl]-1H-pyrrolo[3,2-b]pyridine-3-carboxamide] | 23 nM | 2.8 nM |
| CC(C)(C)n1cc2c(n1)C(=O)CC1(CCN(C(=O)c3cnc4ccc(OCC(N)=O)cc4c3)CC1)C2 [Example 46, 2-({3-[(2-tert-butyl-7-oxo-2,4,6,7-tetrahydro-1′H-spiro[indazole-5,4′-piperidin]-1′-yl)carbonyl]quinolin-6-yl}oxy)acetamide] | 14 nM | 3.8 nM |
| CC(C)(C)n1cc2c(n1)C(=O)CC1(CCN(C(=O)c3ccc4ccc(N)nc4c3)CC1)C2 [Example 47, 1′-[(2-aminoquinolin-7-yl)carbonyl]-2-tert-butyl-2,4-dihydrospiro[indazole-5,4′-piperidin]-7(6H)-one] | 5.3 nM | 1.3 nM |
| O=C1CC2(CCN(C(=O)c3ccc4[nH]ncc4c3)CC2)Cc2cn(C34CC(C3)C4)nc21 [Example 48, 2-bicyclo[1.1.1]pent-1-yl-1′-(1H-indazol-5-ylcarbonyl)-2,4-dihydrospiro[indazole-5,4′-piperidin]-7(6H)-one] | 32 nM | 5.6 nM |
| NC(=O)c1n[nH]c2ccc(C(=O)N3CCC4(CC3)CC(=O)c3c(cnn3C35CC(C3)C5)C4)cc12 [Example 49, 5-[(1-bicyclo[1.1.1]pent-1-yl-7-oxo-1,4,6,7-tetrahydro-1′H-spiro[indazole-5,4′-piperidin]-1′-yl)carbonyl]-1H-indazole-3-carboxamide] | 12 nM | 8.4 nM |

From patent US8802688B2, “Substituted acetyl-coa carboxylase inhibitors” (Pfizer Inc., priority 2011, dated 2014)
